How the values were obtained:
[1] = Measurement of opacity of noodle samples after optical clearing; details: Example 6: 3M to 4M aqueous solutions, 30° C. for 3 days after fixation
Protocol: ClearSee was prepared by mixing xylitol powder [Nacalai tesque, 36718-65; final concentration 10% (wt/vol)], sodium deoxycholate [Nacalai tesque, 10712-96; final concentration 15% (wt/vol)], and urea [Nacalai tesque, 35905-35; final concentration 25% (wt/vol)] in Milli-Q water.
The opacity of the samples was determined using a cooled CCD camera system (GE Healthcare, ImageQuant LAS 4000). […] Then, the sample was digitised by the CCD camera which was cooled to −25° C. with a lens (F0.85 43 mm) using white transillumination. […] The opacity of the sample was calculated by normalising the gray value of the sample with that of the background using free software (Fiji). The contrast C, which represents the difference in gray level, was calculated according to the following equation (1) from an image of the samples laid with a film on which a grid pattern was printed. The plot profile was measured using Fiji software.
ClearSee is a reagent that is able to make plant samples transparent as described in Non-patent Literature 1, and aims to remove autofluorescence of chlorophyll from green leaves. To evaluate the transparency of the noodle samples, the opacity of the transmitted light image was quantified.
The noodle samples were fixed and then immersed in each clearing reagent at 30° C. for 3 days, and the opacity was measured. As controls, the opacity of the noodle sample just after fixation and the noodle sample immersed in D-PBS instead of the clearing reagent was measured. […] Values in the figure represent mean±SD of three independent experiments.

[2] = water at 20° C.; cited from earlier work
[3] = Test for decolorizing agent (opacity); details: pasta immersed in the agent 5 days, then SoROCS 3 days; mean±SD of three experiments; water control 1.079±0.002
Protocol: Pasta samples made from durum wheat were fixed in 4% (wt/wt) PFA/PBS at 30° C. for 1.5 hours, and washed twice in D-PBS. […] Values represent mean ±SD of three independent experiments.

[4] = Test for defatting agent (opacity); details: fried noodles immersed in the agent 5 days, then SoROCS 3 days; mean±SD of three experiments; water control 1.120±0.006
Protocol: Wheat noodle samples fried in vegetable oil were fixed in 4% (wt/wt) PFA/PBS at 30° C. for 1.5 hours and washed twice in D-PBS. […] Values represent mean ±SD of three independent experiments.

Row | SMILES | optical clearing of noodle samples [1] | also measured
1 | Oc1ccccc1O [catechol] | cleared | –
2 | O=C([O-])c1ccccc1O.[Na+] [sodium salicylate] | – | solubility in water [2]: about 4.125 M
3 | Oc1cccc(O)c1 [resorcinol] | cleared | –
4 | Oc1cccc(O)c1O [pyrogallol] | cleared | –
5 | O=C([O-])c1ccccc1O.[Li+] [lithium salicylate] | cleared | –
6 | CCCCC(O)CO (stereo not shown) [1,2-hexanediol] | – | opacity [3]: 1.041±0.002
7 | C=C(C)[C@H]1CC=C(C)CC1 [limonene] | – | opacity [4]: 1.089±0.004
8 | O=C([O-])c1ccccc1C(=O)[O-].[Na+].[Na+] [disodium phthalate] | cleared | –
9 | O=C([O-])c1cccc(O)c1.[Na+] [sodium 3-hydroxybenzoate] | cleared | –
10 | O=C([O-])c1ccc(O)cc1.[Na+] [sodium 4-hydroxybenzoate] | cleared | –

— patent publication US20240167922A1, “TRANSPARENTIZING REAGENT AND TRANSPARENTIZING METHOD” (KYOTO UNIVERSITY, priority 2021, published 2024)
